{
  "source": "patent US7067619B2",
  "about": "“Integrin-binding peptides” (La Jolla Cancer Research Foundation, priority 1993, dated 2006)",
  "key": {"αvβ1 integrin": {"tested_on": "αvβ1 integrin", "assay": "Inhibition of αvβ1-mediated cell attachment to fibronectin", "format": "cell-based", "settings": "less active, FIG. 6", "description": "Cell lines expressing different integrins were used to examine peptide inhibition of integrin function. A human melanoma cell line, C8161, a fibroblast cell line, WI-38, and an osteosarcoma cell line, MG-63 (described by Seftor et al., Canc. Res., 53:3411–3415 (1993); Vogel et al., J. Biol. Chem., 265:5934–5937 (1990); and Pytela et al. (1985), supra, respectively, each of which is incorporated herein by reference) attach to fibronectin through α5β1 integrin, as does B2/α27, a CHO cell line transfected with human α5. B2/C1, the control parental CHO line (Bauer et al., J. Cell. Biol. 116:477–487 (1992), which is incorporated herein by reference), attaches via […]. CHO cells C11 and NIH 3T3 cells express the endogenous Chinese hamster and mouse α5β1 integrins, respectively. The human melanoma cells, A375-M, attach to fibronectin through both α5β1 and α4β1 integrins (Mould et al., J. Biol. Chem. 265:4020–4024 (1990), which is incorporated herein by reference). CHO cell line B2/v7 express the αvβ1 integrin (Zhang et al., J. Cell. Biol. 122:235–242 (1993), which is incorporated herein by reference). […]\nCell lines expressing fibronectin-binding integrins were used to determine peptide activities against these integrins in the cell attachment assay described by Ruoslahti et al., Meth. […] Bound cells were quantitated by staining with 0.1% amido black. […]"}, "α5β1 integrin": {"target": "T1, α5β1 integrin (Homo sapiens, UniProt P05556+P08648)", "T1 construct": "The αvβ3, αvβ5 and α5β1 integrins were isolated from human placental extracts; from tissue; host or cells: human placenta", "T1 sequence (P08648 42-894 limits assumed)": "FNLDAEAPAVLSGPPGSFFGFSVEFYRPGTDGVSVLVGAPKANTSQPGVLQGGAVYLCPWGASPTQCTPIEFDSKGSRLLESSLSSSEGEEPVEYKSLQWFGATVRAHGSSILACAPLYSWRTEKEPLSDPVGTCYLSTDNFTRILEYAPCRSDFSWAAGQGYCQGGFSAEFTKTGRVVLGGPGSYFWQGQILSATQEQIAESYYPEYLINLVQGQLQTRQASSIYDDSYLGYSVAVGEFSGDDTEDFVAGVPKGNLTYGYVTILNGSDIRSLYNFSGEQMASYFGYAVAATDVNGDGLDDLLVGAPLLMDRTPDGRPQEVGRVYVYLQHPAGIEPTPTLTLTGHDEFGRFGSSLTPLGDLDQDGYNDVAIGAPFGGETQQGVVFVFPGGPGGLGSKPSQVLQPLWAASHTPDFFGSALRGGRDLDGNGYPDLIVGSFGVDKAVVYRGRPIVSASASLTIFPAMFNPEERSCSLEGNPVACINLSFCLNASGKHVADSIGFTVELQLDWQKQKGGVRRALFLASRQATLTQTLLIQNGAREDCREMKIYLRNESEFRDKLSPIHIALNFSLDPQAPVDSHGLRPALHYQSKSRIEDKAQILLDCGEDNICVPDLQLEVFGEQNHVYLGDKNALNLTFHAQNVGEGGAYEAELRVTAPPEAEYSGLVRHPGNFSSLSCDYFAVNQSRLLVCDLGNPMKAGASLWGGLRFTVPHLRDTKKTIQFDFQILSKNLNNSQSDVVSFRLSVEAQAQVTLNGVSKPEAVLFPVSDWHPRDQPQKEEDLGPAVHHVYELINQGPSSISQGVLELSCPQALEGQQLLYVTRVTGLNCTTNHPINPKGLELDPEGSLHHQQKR", "T1 sequence (P08648 895-1049 partner limits assumed)": "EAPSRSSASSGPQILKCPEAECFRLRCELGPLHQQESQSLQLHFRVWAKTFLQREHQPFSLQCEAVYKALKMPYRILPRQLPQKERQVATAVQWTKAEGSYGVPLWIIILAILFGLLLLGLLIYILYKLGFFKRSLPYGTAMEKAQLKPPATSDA", "T1 sequence (P05556 21-798)": "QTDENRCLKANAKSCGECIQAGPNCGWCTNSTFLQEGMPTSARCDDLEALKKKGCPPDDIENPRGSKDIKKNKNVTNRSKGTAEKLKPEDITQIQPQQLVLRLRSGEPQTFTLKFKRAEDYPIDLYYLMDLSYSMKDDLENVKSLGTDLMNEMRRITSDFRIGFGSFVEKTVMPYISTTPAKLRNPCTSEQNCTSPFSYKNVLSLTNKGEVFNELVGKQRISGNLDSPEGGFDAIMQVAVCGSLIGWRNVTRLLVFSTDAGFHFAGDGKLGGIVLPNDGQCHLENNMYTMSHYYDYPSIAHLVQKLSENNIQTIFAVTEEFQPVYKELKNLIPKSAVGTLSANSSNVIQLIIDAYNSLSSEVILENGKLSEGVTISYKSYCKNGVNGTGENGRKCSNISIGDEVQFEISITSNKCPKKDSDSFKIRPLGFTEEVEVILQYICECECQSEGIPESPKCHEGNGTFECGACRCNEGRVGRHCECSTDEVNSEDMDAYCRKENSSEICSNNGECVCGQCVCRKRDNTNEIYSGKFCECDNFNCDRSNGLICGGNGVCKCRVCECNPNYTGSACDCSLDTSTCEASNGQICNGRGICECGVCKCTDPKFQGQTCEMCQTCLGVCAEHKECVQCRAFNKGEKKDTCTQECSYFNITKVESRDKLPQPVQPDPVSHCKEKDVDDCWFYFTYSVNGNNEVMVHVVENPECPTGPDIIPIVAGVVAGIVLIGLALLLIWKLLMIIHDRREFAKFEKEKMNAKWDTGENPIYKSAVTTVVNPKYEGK", "assay": "Panning and binding of peptide-displaying phage on α5β1 integrin", "settings": "phage-displayed sequence", "description": "In addition, most of the phage-binding activity in the αvβ3 preparation was captured into microliter wells coated with antibodies against the αv or β3 subunits as described previously (Koivunen et al., J. Biol. Chem., 268:20205–10 (1993). The αIIbβ3 integrin was isolated from outdated platelets (Pytela et al., Science, 231:1559–1562 (1986)).\nPeptide libraries were constructed in fuse 5 vector (Scott and Smith, Science 249:386–390 (1990)) as described previously (Koivunen et al., J. Cell Biol., 124:373–380 (1994). The CX5C, CX6C, CX7C and CX9 [SEQ ID NOs:39–42, respectively] libraries were prepared using synthetic oligonucleotides containing core sequences TGT(NNK)5TGT, TGT(NNK)6TGT, TGT(NNK)7TGT and TGT(NNK)9 [SEQ ID NOS:43–46, respectively] (N=equal molar mixture of A, C, G, T; K=G or T), respectively. The oligonucleotides were made double-stranded by PCR amplification with 5 cycles, purified and ligated to the N-terminus of pIII gene of fuse 5 vector. The CX5C, CX6C, CX7C and CX9 [SEQ ID NOS:39–42, respectively] vectors were transfected into MC1061 cells using 16, 60, 263 and 250 electroporations, respectively. Bacteria were cultured for 24 hours in the presence of 20 μg/ml of tetracycline, and phage were collected from the supernatant by precipitation twice with polyethylene glycol. The phage pellets were dissolved at approximately 10^13 transducing units (TU)/ml in TBS buffer containing 0.02% NaN3 and stored at 4° C. The yields of the CX5C, CX6C, CX7C and CX9 [SEQ ID NOS:39–42, respectively] primary libraries were 3.5×10^8, 1.1×10^9, 4.5×10^5 and 3.5×10^8 clones, respectively. […]\nBinding of individual cloned phage to integrins was studied in microliter wells as described in Koivunen et al., J. Cell. […] Phage that were bound were determined by their ability to infect F-pilus positive K91kan bacteria. Bacteria were grown overnight in microliter wells in the presence of tetracycline and the absorbance indicative of bacterial growth was read at 600 nm with an ELISA plate reader."}},
  "data": [
    {"sequence": "GACRRETAWACGA", "values": [
      {"measurement": "activity against αvβ1 relative to CELRGDGWC", "setting": "αvβ1 integrin", "result": "about 40 ×"},
      {"measurement": "activity against αvβ1 relative to the cyclic RGD peptide", "setting": "αvβ1 integrin", "result": "greater than 100 ×"},
      {"measurement": "binding of peptide-displaying phage to the α5β1 integrin", "setting": "α5β1 integrin", "result": "selectively bind"}
    ]}
  ]
}
